# Assay results as given in patent US11759530B2, “TKI permeability enhancers” (City of Hope, priority 2014, dated 2023).
# “Also recorded” adds a separate entry of the source.
# Legend:
# [1] = test system: NIH 3T3 mouse fibroblasts; conditions: read-out: IC50 for TGF-b-dependent cellular growth in NIH 3T3 mouse fibroblasts; cited from earlier work
# [2] = test system: mink lung cells; conditions: read-out: IC50 for transcription activation in mink lung cells; cited from earlier work
# [3] = test system: androgen receptor (AR full length and AR variant 7) in LNCaP, LAPC-4, 22RV1 cells; test: Androgen receptor expression in prostate cancer cell lines; type: cell-based
# Method: Panels A-C, Prostate cancer cell lines LNCaP (A), LAPC-4 (B), and 22RV1 (C) were treated with inhibitor at indicated concentrations for indicated incubation times. FL, AR full length; V7, AR variant 7.
# (§1) FIG. 10: TKI synergizes AR-ASO against AR expression and the AR signal pathway. […] MTS assay of LNCaP treated for 3 days with 1 uM TKI or 1 uM AR-ASO (AR-ASO-1) in the presence of the titrations of the paired drug.
# Similar results have been obtained with Bcl-2.
# [4] = test system: LNCaP cells; test: MTS cytotoxicity assay of TKI plus AR-ASO; type: cell-based; conditions: 3 days, 1 uM TKI or 1 uM AR-ASO with titration of the paired drug
# Method: as §1
# [5] = test system: HCT116-GFPmiR21 cells; test: Drug screen: EGFP reactivation by anti-miR21 oligo plus compound (ASO uptake and function); type: cell-based, human; conditions: for TKI effect on oligo penetration and EGFP produced per cell: TKI 100 nm-1 uM added to the media in addition to the oligo; for ASO uptake (eGFP activation), FIG. 3: anti-mir21 + drug
# [6] = test system: HCT-116 EGFP-miR21 tumor microspheroids; test: Oligo penetration into tumor microspheroids, confocal microscopy; type: cell-based, human
# Method: HCT-116 cells were transfected with a plasmid that expresses EGFP under the control of mir-21. When the cells express endogenous mir-21, the expression of EGFP is silenced. These cells were grown into tumor microspheroids, which were treated with an anti-mir21 mix mer oligonucleotide under gymnotic conditions (i.e., no carriers, no conjugations). When the anti-mir21 mix mer (product of Santaris Pharma, Horsholm, Denmark) enters the cells, it prevents the binding of the endogenous mir21 to its complementary sites on the 3′UTR of the EGFP gene. EGFP is then expressed and the cells glow green. Applicants discovered, by confocal microscopy, that the penetration of the anti-mir21 into the tumor microspheroid was only approximately 3 cells deep. Applicants verified this by treating the microspheroids with a Cy5-labeled anti-Bcl-2 phosphorothioate LNA gapmer. Here again, the penetration was only about 3 cell layers deep. Applicants then wanted to increase the oligo penetration and increase the amount of EGFP produced per cell. Applicants then began to screen a library of tyrosine kinase inhibitors (TKIs). These were added (100 nm-1 uM) to the media in addition to the oligo. Applicants examined 4 TKIs: Sorafenib was ineffective. […] This work has tremendous practical utility as it provides a way of screening for active oligos in a non-animal model, and provides a way to improve oligo penetration in tumors.
# The HCT-116 EGFP-miR21 stable, clonal cell line was used to create the microspheroids in 96-well hanging-drop plates (Perfecta 3D, Biometrix Inc., Ann Arbor, Mich.). Following trypsinization, the cells were lifted and re-suspended at a density of 3×10^5 cells in 300 μL DMEM (Irvine Scientific, Santa Ana, Calif., USA) supplemented with 10% fetal calf serum (Irvine Scientific), 1 mM L-glutamine, 5% non-essential amino acids. To improve the 3D structure of the spheroids, 2.5% Matrigel™ can be added to the cell seeding solution. […]
# All microspheroids were incubated for additional 5 days and analyzed with a Zeiss confocal microscope. […]
# [7] = test system: HCT116-GFPmiR21 cells; test: ASO intracellular release: anti-miR21 pretreatment, wash, then compound; type: cell-based, human; conditions: then drug
# Method: A robotic screening of a library of tyrosine kinase inhibitors (TKIs) was performed. […] These compounds are under investigation with the aim of determining the mechanism and the lowest concentration required for maximal enhancement of ASO function. For the 14 compounds identified as active in the initial screen, EGFP reactivation was monitored every day for up to 6 days. To determine if any compound affected ASO intracellular release, cells were first treated with 1 μM anti-miR21 PS-mixmer. The next day the media was removed and cells were washed twice with PBS. After adding fresh media the cell were treated with 1 μM of each active compound. Since ASO uptake had already occurred, any enhancement of EGFP expression in active compound-treated cells would be an indication of improved ASO intracellular release.
# [8] = test system: IP3-K; conditions: cited from earlier work
# [9] = test system: IL-1 production in human monocytes; conditions: read-out: IC50 for inhibiting IL-1 production in human monocytes; cited from earlier work
# [10] = test system: PI3-Kα and δ; conditions: read-out: IC50 for PI3-Kα and δ; unit given as mM; cited from earlier work
# [11] = test system: CK1 (S. pombe); conditions: cited from earlier work
structure (smiles),measurement,setting,value
c1ccc(-c2n[nH]cc2-c2ccnc3ccccc23)nc1,IC50,[1],0.089 µM
same,IC50,[2],0.047 µM
O=C1Nc2cc(Br)ccc2/C1=C1/Nc2ccccc2/C1=N/O [Compound 6-BIO],Androgen receptor downregulation,"[3]; LNCaP, LAPC-4, 22RV1, AR full length and AR-V7",can downregulate both forms; also recorded: downregulates
same,Synergy with AR antisense oligo against AR expression and AR signal pathway,"[3]; combined with AR-ASO, LNCaP and LAPC-4, 2 days",synergistic; also recorded: synergizes
same,Cytotoxicity of the combination of TKI and AR-ASO (MTS assay),[4],did not show increased cytoxicity
CNC(=O)c1cc(Oc2ccc(NC(=O)Nc3ccc(Cl)c(C(F)(F)F)c3)cc2)ccn1 [Sorafenib],TKI effect on oligo penetration and EGFP produced per cell,[5],ineffective
same,"ASO uptake (eGFP activation), FIG. 3",[5],Decreased uptake
"Cc1ccc(NC(=O)c2ccc(CN3CCN(C)CC3)cc2)cc1Nc1nccc(-c2cccnc2)n1 [imatinib, 4-[(4-methylpiperazin-1-yl)methyl]-N-(4-methyl-3-{[4-(pyridin-3-yl)pyrimidin-2-yl]amino}phenyl)benzamide]","ASO uptake (eGFP activation), FIG. 3",[5],Increased uptake
same,EGFP expression in tissue culture,"[5]; with anti-mir21 oligo, TKI 100 nm-1 uM",dramatically increased
same,Penetration of the anti-mir21 oligo in tumor microspheroids,[6]; TKI 100 nm-1 uM with oligo,increased penetration
same,Penetration of the Cy5-labeled anti-Bcl-2 oligo in tumor microspheroids,[6]; TKI with oligo,increased penetration was also seen
same,"ASO release (eGFP activation), FIG. 3",[7],increased release
COc1cccc2c1C(=O)c1c(O)c3c(c(O)c1C2=O)C[C@@](O)(C(=O)CO)C[C@@H]3O[C@H]1C[C@H](N)[C@H](O)[C@H](C)O1 [Doxorubicin],Penetration into tumor spheroids (confocal Z-stacks),[6]; FIG. 4-6,more uniform penetration
"Cc1cn(-c2cc(NC(=O)c3ccc(C)c(Nc4nccc(-c5cccnc5)n4)c3)cc(C(F)(F)F)c2)cn1 [nilotinib, 4-methyl-N-[3-(4-methyl-1H-imidazol-1-yl)-5-(trifluoromethyl)phenyl]-3-[(4-pyridin-3-ylpyrimidin-2-yl)amino]benzamide]",TKI effect on oligo penetration and EGFP produced per cell,[5],shown to have activity
O=[N+]([O-])c1ccc(CNc2nc(NCc3cccc(C(F)(F)F)c3)nc3[nH]cnc23)cc1,IC50,[8],10.2 µM
CS(=O)(=O)c1ccc(-c2nc(-c3ccc(F)cc3)c(-c3ccncc3)[nH]2)cc1,IC50,[9],0.2 µM
O=C1NC(=O)/C(=C/c2ccc3c(c2)OC(F)(F)O3)S1,IC50,[10],> 0.02 mM
